Broadly, the IC50 is the concentration needed to halve the response being measured.

Where two headings read alike, the source gives them in different places.

The results in this text go back to patent US20080261994A1, “CYCLOPROPANE COMPOUNDS AND PHARMACEUTICAL USE THEREOF” (Japan Tobacco Inc., priority 2003, published 2008).

Holding throughout (format): biochemical
For one assay, the target named is T1, Recombinant Human MMP-13 (Homo sapiens, UniProt P45452).
T1 construct: purchased R&D systems 511-MM
Briefly: MMP-13 inhibitory activity (MMP-13 specific fluorescent substrate with quencher). The essentials: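 Recombinant human MMP-13 with test compound, reaction started with quenched fluorogenic peptide 7-MCA-Pro-CHA-Gly-NVal-His-Ala-DPA in Tris-HCl buffer, 1 h at 25 °C, stopped with acetic acid. Fluorescence at Ex 325/Em 405 nm; % inhibition versus enzyme-free and inhibitor-free wells, reported as IC50 (μM).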

For another assay, the target named is T2, MMP-1 (Homo sapiens, UniProt P03956).
T2 sequence (P03956 100-469): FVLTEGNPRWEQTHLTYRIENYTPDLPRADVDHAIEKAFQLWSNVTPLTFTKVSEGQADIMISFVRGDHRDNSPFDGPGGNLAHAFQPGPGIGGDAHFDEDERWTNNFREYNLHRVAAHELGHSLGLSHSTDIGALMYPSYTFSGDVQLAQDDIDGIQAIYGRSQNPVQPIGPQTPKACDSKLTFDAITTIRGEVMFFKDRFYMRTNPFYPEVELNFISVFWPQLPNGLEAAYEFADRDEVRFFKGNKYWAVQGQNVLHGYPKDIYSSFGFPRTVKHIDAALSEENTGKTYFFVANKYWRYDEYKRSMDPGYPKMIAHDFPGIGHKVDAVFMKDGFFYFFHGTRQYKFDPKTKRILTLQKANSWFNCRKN
Kind of assay: MMP-1 inhibitory action (Type I collagen Activity Measurement kit, FITC-labeled collagen type I).

The next assay addresses T3, aggrecanase-1 (Homo sapiens, UniProt O75173).
T3 sequence (O75173 213-837): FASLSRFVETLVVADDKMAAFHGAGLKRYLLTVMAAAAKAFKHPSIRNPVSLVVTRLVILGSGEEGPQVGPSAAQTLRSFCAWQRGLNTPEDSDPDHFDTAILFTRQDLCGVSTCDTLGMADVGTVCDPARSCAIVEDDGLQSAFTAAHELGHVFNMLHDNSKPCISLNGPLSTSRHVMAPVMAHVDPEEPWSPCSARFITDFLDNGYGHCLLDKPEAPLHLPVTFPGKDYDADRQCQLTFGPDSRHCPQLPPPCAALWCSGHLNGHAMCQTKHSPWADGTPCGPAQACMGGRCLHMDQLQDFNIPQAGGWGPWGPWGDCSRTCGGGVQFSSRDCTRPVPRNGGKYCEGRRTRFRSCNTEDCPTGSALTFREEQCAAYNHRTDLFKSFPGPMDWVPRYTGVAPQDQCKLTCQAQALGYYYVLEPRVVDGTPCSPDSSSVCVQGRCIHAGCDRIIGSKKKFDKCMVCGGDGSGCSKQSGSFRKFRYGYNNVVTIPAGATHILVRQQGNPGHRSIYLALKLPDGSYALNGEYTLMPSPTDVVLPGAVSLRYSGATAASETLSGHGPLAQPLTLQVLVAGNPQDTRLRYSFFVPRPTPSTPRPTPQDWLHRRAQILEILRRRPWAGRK
Briefly: Aggrecanase-1 inhibitory action (Particle Assay, GAG release from aggrecan-containing polyacrylamide particles). The essentials:
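Enzyme and compound incubated with aggrecan-containing polyacrylamide particles in Tris-HCl buffer at 37° C for 15 h. Released GAG in supernatant measured with 1,9-dimethylmethylene blue at 595 nm against chondroitin sulfate standard; % inhibition from enzyme-free and inhibitor-free wells, reported as TC50 (μM).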

[1] abbreviates: Recombinant Human MMP-13, fluorescent substrate, 25° C. for 1 h, read-out: IC50 MMP13 (Experimental Example 3).
Setting [2] is: MMP-1 inhibitory action, FITC-labeled collagen type I, 37° C. for 3 hr, read-out: IC50 MMP1 (Experimental Example 2).
Setting [3] is: aggrecanase-1 inhibitory action, read-out: IC50 AG1 (Experimental Example 1).
Setting [4] is: Experimental Example 3, read-out: IC50 MMP13.
The mark [5] stands for this setting: Experimental Example 2, read-out: IC50 MMP1.
Where [6] appears, read: Experimental Example 1, read-out: IC50 AG1.

With `O=C(O)C1(NS(=O)(=O)c2ccc(-c3ccc(O)cc3)s2)CC1c1ccccc1` (stereo not drawn) [Example 2-65], the IC50 was less than 1 µM on Recombinant Human MMP-13 (setting [1]), not below 10 µM on MMP-1 (setting [2]) and less than 1 µM at aggrecanase-1 (setting [3]).

Consider `COc1cc2c(cc1OC)CN(S(=O)(=O)N[C@@]1(C(=O)O)C(C)[C@@H]1c1ccccc1)CC2` (stereo partly drawn) [Example 2-528], for which the half-inhibitory concentration (IC50) on Recombinant Human MMP-13 (setting [4]), at MMP-1 (setting [5]) and at aggrecanase-1 (setting [6]) was not below 1 µM throughout.

Regarding `O=C(Nc1ccccc1)c1ccc(S(=O)(=O)N[C@@]2(C(=O)O)C[C@@H]2c2ccccc2)cc1` [Example 2-474], the IC50 at Recombinant Human MMP-13 (setting [4]) is not below 1 µM; on MMP-1 (setting [5]) it was not below 10 µM; at aggrecanase-1 (setting [6]) it was not below 1 µM.

As to `CC1[C@H](c2ccccc2)[C@]1(NS(=O)(=O)c1ccc(-n2cc(C#N)cn2)s1)C(=O)O` (stereo partly drawn) [Example 2-580], the results for the IC50 at Recombinant Human MMP-13 (setting [4]), at MMP-1 (setting [5]) and on aggrecanase-1 (setting [6]) were less than 0.1 µM, not below 1 µM and less than 1 µM, respectively.

As for `Cc1ccc(-c2ccccc2C2CC2(NS(=O)(=O)c2ccc(-c3ccc(Cl)cc3)s2)C(=O)O)cc1` (stereo not drawn) [Example 2-40], the IC50 was less than 1 µM at Recombinant Human MMP-13 (setting [1]), not below 10 µM at MMP-1 (setting [2]) and less than 1 µM on aggrecanase-1 (setting [3]).

Take `O=C(O)C1(NS(=O)(=O)c2ccc(-c3ccc(Cl)cc3)s2)CC1(CNCc1nccs1)c1ccccc1` (stereo not drawn) [Example 2-393]: the IC50 on Recombinant Human MMP-13 (setting [4]) was less than 0.1 µM; on MMP-1 (setting [5]), not below 1 µM; on aggrecanase-1 (setting [6]), less than 1 µM.

For the molecule `O=C(O)C1(NS(=O)(=O)N2CC=C(c3ccccc3)CC2)CC1c1ccccc1` (stereo not drawn) [Example 2-148], the IC50 at Recombinant Human MMP-13 (setting [1]) is less than 1 µM; on MMP-1 (setting [2]), not below 10 µM; on aggrecanase-1 (setting [3]) it was not below 1 µM.

Consider `O=C(O)C1(NS(=O)(=O)c2ccc(-c3cc(C(F)(F)F)on3)s2)CC1c1cccc([N+](=O)[O-])c1` (stereo not drawn) [Example 2-199], for which the half-maximal inhibitory concentration (IC50) at Recombinant Human MMP-13 (setting [1]) was less than 1 µM; at MMP-1 (setting [2]), not below 10 µM; on aggrecanase-1 (setting [3]) it was less than 1 µM.

In the case of `C[C@]1(c2ccccc2)C[C@@]1(NS(=O)(=O)c1ccc(-c2cc(O)c(F)c(F)c2)s1)C(=O)O` [Example 2-601], the results for the IC50 on Recombinant Human MMP-13 (setting [4]), on MMP-1 (setting [5]) and at aggrecanase-1 (setting [6]) were not below 1 µM, not below 1 µM and less than 1 µM, respectively.

As for `COc1ccccc1C1(C)CC1(NS(=O)(=O)c1ccc(-c2cc(C(F)(F)F)on2)s1)C(=O)O` (stereo not drawn) [Example 2-613], the IC50 is not below 1 µM at Recombinant Human MMP-13 (setting [4]), less than 1 µM on MMP-1 (setting [5]) and less than 0.1 µM at aggrecanase-1 (setting [6]).

For the molecule `O=C(O)CCc1ccccc1C1CC1(NS(=O)(=O)c1ccc(-c2ccc(Cl)cc2)s1)C(=O)O` (stereo not drawn) [Example 2-179], the IC50 on Recombinant Human MMP-13 (setting [1]) is less than 1 µM; at MMP-1 (setting [2]), not below 10 µM; at aggrecanase-1 (setting [3]), less than 0.1 µM.

Turning to `C[C@]1(c2cccc(F)c2)C[C@@]1(NS(=O)(=O)c1ccc(-c2cc(C(F)(F)F)on2)s1)C(=O)O` [Example 2-618], the figures for the IC50 on Recombinant Human MMP-13 (setting [4]), on MMP-1 (setting [5]) and on aggrecanase-1 (setting [6]) were less than 1 µM, less than 1 µM and less than 0.1 µM, respectively.

`COc1cccc(C2CC2(NS(=O)(=O)c2ccc(-c3ccc(Cl)cc3)cc2)C(=O)O)c1` (stereo not drawn) [Example 1-12]: the IC50 on Recombinant Human MMP-13 (setting [1]) was less than 0.1 µM; on MMP-1 (setting [2]) it was not below 1 µM; at aggrecanase-1 (setting [3]), less than 1 µM.

`Cc1csc(-c2cccc(C3CC3(NS(=O)(=O)c3ccc(-c4ccc(Cl)cc4)s3)C(=O)O)c2)n1` (stereo not drawn) [Example 2-86]: the IC50 was less than 1 µM at Recombinant Human MMP-13 (setting [1]), not below 10 µM on MMP-1 (setting [2]) and less than 0.1 µM on aggrecanase-1 (setting [3]).

As for `O=C(O)C1(NS(=O)(=O)N2CC(Oc3ccc(Cl)cc3)C2)CC1c1ccccc1` (stereo not drawn) [Example 2-15], the values for the IC50 at Recombinant Human MMP-13 (setting [1]), at MMP-1 (setting [2]) and on aggrecanase-1 (setting [3]) were not below 1 µM, not below 10 µM and not below 10 µM, respectively.

In the case of `O=C(O)Cc1cccc(C2CC2(NS(=O)(=O)c2ccc(-c3cc(C(F)(F)F)on3)s2)C(=O)O)c1` (stereo not drawn) [Example 2-212], the IC50 on Recombinant Human MMP-13 (setting [1]) was less than 1 µM; at MMP-1 (setting [2]), not below 1 µM; at aggrecanase-1 (setting [3]), less than 0.1 µM.
